Laboratory results: US20240270751A1, “Pyrazolopyridinone Compounds” (BeiGene Ltd., priority 2021, published 2024)

What was measured:
[1] = target: DGKζ (Homo sapiens (Human), UniProt Q13574); experiment: Biochemical DGK IC50 assay, DGKζ ADP-Glo assay; details: 0.5 nM enzyme, 140 μM ATP, 80 μM DAG; read-out: DGKζ ADP-Glo assay IC50
In short: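 Full-length human DGKζ, His-TEV tagged and purified from baculovirus-infected Sf9 cells, assayed by ADP-Glo with DAG/PS lipid micelle substrate prepared in 25 mM HEPES pH 7.0 with octyl glucoside. Final compound concentrations spanned 1.55–10000 nM or 23.3–150000 nM.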

[2] = target: DGKα (Homo sapiens (Human), UniProt P23743); experiment: Biochemical DGK IC50 assay, DGKα ADP-Glo assay; details: 7.5 nM enzyme, 140 μM ATP, 80 μM DAG
Sequence of DGKα (P23743 whole entry): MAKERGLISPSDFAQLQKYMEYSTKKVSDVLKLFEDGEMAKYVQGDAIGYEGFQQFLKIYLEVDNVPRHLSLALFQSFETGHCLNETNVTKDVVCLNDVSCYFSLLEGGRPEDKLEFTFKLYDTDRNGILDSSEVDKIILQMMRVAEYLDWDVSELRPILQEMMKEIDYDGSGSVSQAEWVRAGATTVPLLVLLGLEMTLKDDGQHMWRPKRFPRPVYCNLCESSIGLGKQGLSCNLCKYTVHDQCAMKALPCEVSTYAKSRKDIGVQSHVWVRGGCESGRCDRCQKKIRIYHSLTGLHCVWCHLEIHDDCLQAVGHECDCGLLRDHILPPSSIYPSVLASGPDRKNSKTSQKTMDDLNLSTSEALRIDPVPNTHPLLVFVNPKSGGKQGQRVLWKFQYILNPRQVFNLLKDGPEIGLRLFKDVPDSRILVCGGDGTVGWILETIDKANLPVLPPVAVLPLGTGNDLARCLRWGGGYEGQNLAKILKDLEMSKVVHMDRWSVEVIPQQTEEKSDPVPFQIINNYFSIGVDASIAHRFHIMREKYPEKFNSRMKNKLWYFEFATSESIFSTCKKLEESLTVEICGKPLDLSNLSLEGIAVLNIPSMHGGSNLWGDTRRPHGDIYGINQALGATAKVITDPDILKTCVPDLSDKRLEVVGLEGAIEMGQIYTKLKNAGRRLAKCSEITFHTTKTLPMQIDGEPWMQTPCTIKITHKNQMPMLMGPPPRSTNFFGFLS
In short: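 ADP-Glo read-out with full-length DGKα on DAG/PS lipid micelle substrate in 25 mM HEPES pH 7.0, 0.5 mM EDTA, 160 mM octyl β-D-glucopyranoside. Compound final concentrations spanned 1.55˜10000 nM or 23.3˜150000 nM.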

Sequence of DGKζ (Q13574 other isoform, or with tags, fused parts or gaps): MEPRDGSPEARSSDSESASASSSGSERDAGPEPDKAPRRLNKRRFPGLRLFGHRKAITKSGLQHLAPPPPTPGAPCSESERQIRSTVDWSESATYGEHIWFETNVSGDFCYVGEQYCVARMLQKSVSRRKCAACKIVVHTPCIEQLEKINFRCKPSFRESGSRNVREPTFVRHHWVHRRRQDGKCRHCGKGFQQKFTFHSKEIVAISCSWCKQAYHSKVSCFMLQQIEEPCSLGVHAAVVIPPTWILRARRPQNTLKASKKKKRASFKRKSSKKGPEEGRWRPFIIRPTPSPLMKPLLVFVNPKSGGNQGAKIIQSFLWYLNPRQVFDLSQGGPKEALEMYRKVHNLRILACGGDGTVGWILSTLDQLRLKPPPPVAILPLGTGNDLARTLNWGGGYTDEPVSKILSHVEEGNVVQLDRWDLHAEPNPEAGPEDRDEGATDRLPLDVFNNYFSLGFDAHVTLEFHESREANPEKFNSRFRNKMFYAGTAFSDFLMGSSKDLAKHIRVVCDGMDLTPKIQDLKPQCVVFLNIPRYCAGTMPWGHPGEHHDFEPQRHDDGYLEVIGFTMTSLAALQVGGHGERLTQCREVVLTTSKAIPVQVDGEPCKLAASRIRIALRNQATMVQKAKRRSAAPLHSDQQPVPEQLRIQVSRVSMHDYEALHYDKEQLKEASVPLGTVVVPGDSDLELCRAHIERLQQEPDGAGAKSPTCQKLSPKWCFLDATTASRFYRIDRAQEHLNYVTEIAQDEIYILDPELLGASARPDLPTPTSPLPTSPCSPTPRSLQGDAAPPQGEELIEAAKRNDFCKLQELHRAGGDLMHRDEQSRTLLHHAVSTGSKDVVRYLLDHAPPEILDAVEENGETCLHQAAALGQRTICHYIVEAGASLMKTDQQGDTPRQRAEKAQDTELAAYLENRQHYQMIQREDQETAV

In the case of `CC[C@H]1CN(C(C)c2ccc(F)cc2Br)[C@H](CC)CN1c1cc(=O)n(C)c2cn(CC#N)nc12` (stereo partly drawn) [Compound A111, 2-(7-((2S,5R)-4-(1-(2-bromo-4-fluorophenyl)ethyl)-2,5-diethylpiperazin-1-yl)-4-methyl-5-oxo-4,5-dihydro-2H-pyrazolo[4,3-b]pyridin-2-yl)acetonitrile], the IC50 [1] is reported as 0.096 µM and the IC50 [2] is reported as > 10 µM.

In the case of `CC[C@H]1CN(C(C)c2cc(C)ccc2C(F)(F)F)[C@H](CC)CN1c1cc(=O)n(C)c2cn(CC#N)nc12` (stereo partly drawn) [Compound A114], the IC50 [1] is reported as 6.6 µM and the IC50 [2] is reported as > 10 µM.

`CC[C@H]1CN(C(C)c2ccc(F)cc2Cl)[C@H](CC)CN1c1cc(=O)n(C)c2cn(CC#N)nc12` (stereo partly drawn) [Compound A116] showed an IC50 [1] of 0.146 µM and an IC50 [2] of 5.76 µM.

For `CC[C@H]1CN(C(C)c2c(C)cccc2C(F)(F)F)[C@H](CC)CN1c1cc(=O)n(C)c2cn(CC#N)nc12` (stereo partly drawn) [Compound A117], the IC50 [1] was 3.87 µM and the IC50 [2] was > 10 µM.

In the case of `CC[C@H]1CN(C(C)c2ccncc2C(F)(F)F)[C@H](CC)CN1c1cc(=O)n(C)c2cn(CC#N)nc12` (stereo partly drawn) [Compound A118], the IC50 [1] is reported as 0.185 µM and the IC50 [2] is reported as > 150 µM.

`CC[C@H]1CN(C(C)c2cccc(CO)c2)[C@H](CC)CN1c1cc(=O)n(C)c2cn(CC#N)nc12` (stereo partly drawn) [Compound A121b] was tested, and the IC50 [1] was > 10 µM and the IC50 [2] was 4.16 µM.

Compound `CC[C@H]1CN(C(C)c2ccc(OC(F)(F)F)cc2)[C@H](CC)CN1c1cc(=O)n(C)c2cn(CC#N)nc12` (stereo partly drawn) [Compound A122] has an IC50 [1] of 0.635 µM and an IC50 [2] of 0.0105 µM.

Compound `CC[C@H]1CN(C(C)c2ccc3nccnc3c2)[C@H](CC)CN1c1cc(=O)n(CC(F)(F)F)c2cn(CC#N)nc12` (stereo partly drawn) [Compound A123, 2-(7-((2S,5R)-2,5-diethyl-4-(1-(quinoxalin-6-yl)ethyl)piperazin-1-yl)-5-oxo-4-(2,2,2-trifluoroethyl)-4,5-dihydro-2H-pyrazolo[4,3-b]pyridin-2-yl)acetonitrile] has an IC50 [1] of 1.74 µM and an IC50 [2] of 6.03 µM.

With `CC[C@H]1CN([C@H](C)c2ccc3nccnc3c2)[C@H](CC)CN1c1cc(=O)n(CC(F)(F)F)c2cn(CC#N)nc12` [Compound A124] the IC50 [1] was > 10 µM and the IC50 [2] was > 10 µM.

In the case of `C[C@@H](c1ccc2nccnc2c1)N1CC2CCC1CN2c1cc(=O)n(C)c2cn(CC#N)nc12` (stereo partly drawn) [Compound A125a], the IC50 [1] is reported as > 10 µM and the IC50 [2] is reported as > 10 µM.

For `C[C@H](c1ccc2nccnc2c1)N1CC2CCC1CN2c1cc(=O)n(C)c2cn(CC#N)nc12` (stereo partly drawn) [Compound A125b], the IC50 [1] was 5.27 µM and the IC50 [2] was > 10 µM.

Compound `CC[C@H]1CN(C(C)c2ccc3c(c2)OCCO3)[C@H](CC)CN1c1cc(=O)n(C)c2cn(CC#N)nc12` (stereo partly drawn) [Compound A126, 2-(7-((2S,5R)-4-(1-(2,3-dihydrobenzo[b][1,4]dioxin-6-yl)ethyl)-2,5-diethylpiperazin-1-yl)-4-methyl-5-oxo-4,5-dihydro-2H-pyrazolo[4,3-b]pyridin-2-yl)acetonitrile] has an IC50 [1] of 0.0072 µM and an IC50 [2] of 0.449 µM.

With `CC[C@H]1CN(C(C)c2ccc(C)cc2)[C@H](CC)CN1c1cc(=O)n(C)c2cn(CC#N)nc12` (stereo partly drawn) [Compound A127, 2-(7-((2S,5R)-2,5-diethyl-4-(1-(p-tolyl)ethyl)piperazin-1-yl)-4-methyl-5-oxo-4,5-dihydro-2H-pyrazolo[4,3-b]pyridin-2-yl)acetonitrile] the IC50 [1] was 0.26 µM and the IC50 [2] was 0.056 µM.

With `CC[C@H]1CN(C(C)c2ccc(C(F)F)cc2)[C@H](CC)CN1c1cc(=O)n(C)c2cn(CC#N)nc12` (stereo partly drawn) [Compound A128] the IC50 [1] was 0.112 µM and the IC50 [2] was 0.031 µM.

Work on `CC[C@H]1CN([C@@H](C)c2ccc3nccnc3c2)[C@H](CC)CN1c1cc(=O)[nH]c2cn(CC#N)nc12` [Compound A129, 2-(7-((2S,5R)-2,5-diethyl-4-((S)-1-(quinoxalin-6-yl)ethyl)piperazin-1-yl)-5-oxo-4,5-dihydro-2H-pyrazolo[4,3-b]pyridin-2-yl)acetonitrile] yielded an IC50 [1] of 0.033 µM and an IC50 [2] of 2.35 µM.

With `CC[C@H]1CN(C(C)c2ncccn2)[C@H](CC)CN1c1cc(=O)n(C)c2cn(CC#N)nc12` (stereo partly drawn) [Compound A130] the IC50 [1] was 9.08 µM and the IC50 [2] was 0.015 µM.

Compound `CC[C@H]1CN(C(C)c2ccncn2)[C@H](CC)CN1c1cc(=O)n(C)c2cn(CC#N)nc12` (stereo partly drawn) [Compound A131] has an IC50 [1] of 8.99 µM and an IC50 [2] of 0.287 µM.

In the case of `C[C@@H]1CN(c2c(Cl)c(=O)n(C)c3cn(CC#N)nc23)[C@@H](C)CN1[C@@H](C)c1ccc2nccnc2c1` [Compound A133, 2-(6-chloro-7-((2S,5R)-2,5-dimethyl-4-((S)-1-(quinoxalin-6-yl)ethyl)piperazin-1-yl)-4-methyl-5-oxo-4,5-dihydro-2H-pyrazolo[4,3-b]pyridin-2-yl)acetonitrile], the IC50 [1] is reported as 9.39 µM and the IC50 [2] is reported as > 10 µM.

Compound `C[C@@H]1CN(c2c(C#N)c(=O)n(C)c3cn(CC#N)nc23)[C@@H](C)CN1[C@@H](C)c1ccc2nccnc2c1` [Compound A134, 2-(cyanomethyl)-7-((2S,5R)-2,5-dimethyl-4-((S)-1-(quinoxalin-6-yl)ethyl)piperazin-1-yl)-4-methyl-5-oxo-4,5-dihydro-2H-pyrazolo[4,3-b]pyridine-6-carbonitrile] has an IC50 [1] of 0.035 µM and an IC50 [2] of 1.94 µM.

`CC[C@H]1CN(C(C)c2ncc(F)cc2C(F)(F)F)[C@H](CC)CN1c1cc(=O)n(C)c2cn(CC#N)nc12` (stereo partly drawn) [Compound A136, 2-(7-((2S,5R)-2,5-diethyl-4-(1-(5-fluoro-3-(trifluoromethyl)pyridin-2-yl)ethyl)piperazin-1-yl)-4-methyl-5-oxo-4,5-dihydro-2H-pyrazolo[4,3-b]pyridin-2-yl)acetonitrile] showed an IC50 [1] of 0.317 µM and an IC50 [2] of 61.9 µM.

With `CC[C@@H]1CN(c2cc(=O)n(C)c3cn(CC#N)nc23)[C@@H](C)CN1C(C)c1ccc(F)cc1OC` (stereo partly drawn) [Compound A137, 2-(7-((2S,5R)-5-ethyl-4-(1-(4-fluoro-2-methoxyphenyl)ethyl)-2-methylpiperazin-1-yl)-4-methyl-5-oxo-4,5-dihydro-2H-pyrazolo[4,3-b]pyridin-2-yl)acetonitrile] the IC50 [1] was 0.106 µM and the IC50 [2] was > 10 µM.

Compound `CC[C@H]1CN(C(C)c2ccc3c(c2)NCCO3)[C@H](CC)CN1c1cc(=O)n(C)c2cn(CC#N)nc12` (stereo partly drawn) [Compound A138] has an IC50 [1] of 0.48 µM and an IC50 [2] of 1.28 µM.

Work on `CC[C@H]1CN(C(C)c2ccc(OC(C)C)cn2)[C@H](CC)CN1c1cc(=O)n(C)c2cn(CC#N)nc12` (stereo partly drawn) [Compound A140] yielded an IC50 [1] of 0.189 µM and an IC50 [2] of 0.082 µM.

For `CCOc1cc(F)ccc1C(C)N1C[C@H](CC)N(c2cc(=O)n(C)c3cn(CC#N)nc23)C[C@H]1CC` (stereo partly drawn) [Compound A141], the IC50 [1] was 0.696 µM and the IC50 [2] was 6.63 µM.

With `CC[C@H]1CN(C(C)c2ccc(F)cc2OC(C)C)[C@H](CC)CN1c1cc(=O)n(C)c2cn(CC#N)nc12` (stereo partly drawn) [Compound A142] the IC50 [1] was 1.22 µM and the IC50 [2] was 6.58 µM.

With `COC[C@H]1CN(C(C)c2ccc3nccnc3c2)[C@H](C)CN1c1cc(=O)n(C)c2cn(CC#N)nc12` (stereo partly drawn) [Compound A143, 2-(7-((2R,5R)-2-(methoxymethyl)-5-methyl-4-(1-(quinoxalin-6-yl)ethyl)piperazin-1-yl)-4-methyl-5-oxo-4,5-dihydro-2H-pyrazolo[4,3-b]pyridin-2-yl)acetonitrile] the IC50 [1] was 0.253 µM and the IC50 [2] was > 10 µM.

`CC[C@H]1CN(C(C)c2nc3ccccc3n2CC)[C@H](CC)CN1c1cc(=O)n(C)c2cn(CC#N)nc12` (stereo partly drawn) [Compound A144, 2-(7-((2S,5R)-2,5-diethyl-4-(1-(1-ethyl-1H-benzo[d]imidazol-2-yl)ethyl)piperazin-1-yl)-4-methyl-5-oxo-4,5-dihydro-2H-pyrazolo[4,3-b]pyridin-2-yl)acetonitrile] gave an IC50 [1] of 0.042 µM and an IC50 [2] of 105 µM.
